From patent US20220104492A1, “PYRIDAZINIUM COMPOUNDS FOR USE IN A METHOD OF CONTROLLING UNWANTED PLANT GROWTH” (SYNGENTA CROP PROTECTION AG, priority 2019, published 2022)

Tests used:
Experiment in all cases: Post-emergence efficacy (glasshouse, spray application)
Type in all cases: in vivo
[1] = tested on: Ipomoea hederacea (IPOHE); conditions: 312 h, Application rate 500 g/Ha, evaluated after 13 days, 100=total damage to plant, 0=no damage to plant, read-out: Control of weed species after post-emergence application, IPOHE
Experimental: (§1) Seeds of a variety of test species were sown in standard soil in pots. After cultivation for 14 days (post-emergence) under controlled conditions in a glasshouse (at 24/16° C., day/night; 14 hours light; 65 humidity), the plants were sprayed with an aqueous spray solution derived from the dissolution of the technical active ingredient formula (I) in a small amount of acetone and a special solvent and emulsifier mixture referred to as IF50 (11.12% Emulsogen EL360 TM+44.44% N-methylpyrrolidone+44.44% Dowanol DPM glycol ether), to create a 50 g/l solution which was then diluted to required concentration using a solution of 0.25% or 1% Empicol ESC70 (Sodium lauryl ether sulphate)+1% ammonium sulphate in water as diluent.
(§2) The test plants were then grown in a glasshouse under controlled conditions (at 24/16° C., day/night; 14 hours light; 65% humidity) and watered twice daily. After 13 days the test was evaluated (100=total damage to plant; 0=no damage to plant).
(§3) Ipomoea hederacea (IPOHE), Euphorbia heterophylla (EPHHL), Chenopodium album (CHEAL), Amaranthus palmeri (AMAPA), Lolium perenne (LOLPE), Digitaria sanguinalis (DIGSA), Eleusine indica (ELEIN), Echinochloa crus-galli (ECHCG), Setaria faberi (SETFA)

[2] = tested on: Amaranthus palmeri (AMAPA); conditions: 312 h, Application rate 500 g/Ha, evaluated after 13 days, 100=total damage to plant, 0=no damage to plant, read-out: Control of weed species after post-emergence application, AMAPA
Experimental: as §1, §2, §3

[3] = tested on: Chenopodium album (CHEAL); conditions: 312 h, Application rate 500 g/Ha, evaluated after 13 days, 100=total damage to plant, 0=no damage to plant, read-out: Control of weed species after post-emergence application, CHEAL
Experimental: as §1, §2, §3

[4] = tested on: Echinochloa crus-galli (ECHCG); conditions: 312 h, Application rate 500 g/Ha, evaluated after 13 days, 100=total damage to plant, 0=no damage to plant, read-out: Control of weed species after post-emergence application, ECHCG
Experimental: as §1, §2, §3

[5] = tested on: Lolium perenne (LOLPE); conditions: 312 h, Application rate 500 g/Ha, evaluated after 13 days, 100=total damage to plant, 0=no damage to plant, read-out: Control of weed species after post-emergence application, LOLPE
Experimental: as §1, §2, §3

[6] = tested on: Euphorbia heterophylla (EPHHL); conditions: 312 h, Application rate 500 g/Ha, evaluated after 13 days, 100=total damage to plant, 0=no damage to plant, read-out: Control of weed species after post-emergence application, EPHHL
Experimental: as §1, §2, §3

[7] = tested on: Eleusine indica (ELEIN); conditions: 312 h, Application rate 500 g/Ha, evaluated after 13 days, 100=total damage to plant, 0=no damage to plant, read-out: Control of weed species after post-emergence application, ELEIN
Experimental: as §1, §2, §3

[8] = tested on: Setaria faberi (SETFA); conditions: 312 h, Application rate 500 g/Ha, evaluated after 13 days, 100=total damage to plant, 0=no damage to plant, read-out: Control of weed species after post-emergence application, SETFA
Experimental: as §1, §2, §3

[9] = tested on: Digitaria sanguinalis (DIGSA); conditions: 312 h, Application rate 500 g/Ha, evaluated after 13 days, 100=total damage to plant, 0=no damage to plant, read-out: Control of weed species after post-emergence application, DIGSA
Experimental: as §1, §2, §3

| Structure (SMILES) | pest or weed control at 500 g/ha [1] [%] | pest or weed control at 500 g/ha [2] [%] | pest or weed control at 500 g/ha [3] [%] | pest or weed control at 500 g/ha [4] [%] | pest or weed control at 500 g/ha [5] [%] | pest or weed control at 500 g/ha [6] [%] | pest or weed control at 500 g/ha [7] [%] | pest or weed control at 500 g/ha [8] [%] | pest or weed control at 500 g/ha [9] [%] |
| --- | --- | --- | --- | --- | --- | --- | --- | --- | --- |
| O=C(O)COCC[n+]1ccc(-c2ncccn2)cn1 [Compound A4] | 90 | 100 | 100 | 90 | 80 | 100 | 100 | 100 | 90 |
| O=C(O)CNC(=O)CC[n+]1ccc(-c2cccnn2)cn1 [Compound A27] | 40 | 100 | 100 | 90 | 70 | 90 | 60 | 100 | 100 |
| CC(C)CC(NC(=O)C[n+]1ccc(-c2ncccn2)cn1)C(=O)O (stereo not drawn) [Compound A6] | 90 | 100 | 100 | 70 | 40 | 100 | 90 | 50 | 50 |
